This is an account of results in US20190017029A1, “Generation of Expandable Cardiovascular Progenitor Cells” (The J. David Gladstone Institutes, a testament trust …, priority 2016, published 2019).

Holding throughout (assay type): cell-based, mouse
One assay deals with Flk-1^+/PdgfR-α^+ cells. Description: Flow cytometry of Flk-1+/PdgfR-α+ cells during CASD cardiac reprogramming of 2nd MEFs treated with BACS. As to conditions: NU6140 4 μM along with BACS from day 8; day 14. Here is the method: A Cell-Activation and Signaling-Directed (CASD) system-based cardiac reprogramming was conducted using methods described by Efe et al. (2011). Briefly, 2nd MEFs at passage 3 were seeded onto geltrex (Gibco)-coated plates at a density of 2.5×10^4 cells/well of a 12-well plate in MEF medium (day −2). Doxycycline (DOX; 2 μg/ml, Sigma-Aldrich) was added into the medium one day later (day −1) and the cells were cultured for another day. Medium was then changed to reprogramming medium (knockout DMEM supplemented with 5% knockout serum replacement (KSR), 15% embryonic stem cell (ESC)-qualified FBS, 1× Glutamax, 1×NEAA, 0.1 mM β-mercaptoethanol (β-ME), 1% ESC-qualified nucleosides (Millipore), 0.5 μM Jak inhibitor 1 (JI1; Millipore), and 2 μg/ml DOX) at day 0. This medium was renewed every 2 days. […]
On day 8, the medium was switched to ieCPC basal medium (Advanced DMEM/F12: Neural basal (1:1) supplemented with 1×N2, 1×B27 without Vitamin A, 1× Glutamax, 1×NEAA, 0.05% bovine serum albumin (BSA), and 0.1 mM β-ME) supplemented with BACS (5 ng/ml BMP4, 10 ng/ml Activin A, 3 μM CHIR99021, and 2 μM SU5402 (Tocris Bioscience)). JI1 (0.5 μM) was included to suppress the establishment of pluripotency until the cells were ready for purification at day 13. […]
Background: Flow cytometry measures light scatter and fluorescence of single cells or particles in a stream.

Another assay concerns ieCPC-SMCs. Briefly: Contractile assay of smooth muscle cells in vitro. The settings on record: 100 μM carbachol; seen in primary SMCs, not in undifferentiated ieCPCs. Here is the method:
ieCPCs, ieCPC-SMCs, and primary SMCs were treated with carbachol (100 μM, Sigma-Aldrich) and monitored with a Zeiss Axio Observer microscope in a time-lapse manner at 10-minute intervals for 1 hour. Cell-surface areas were then calculated with ImageJ software.

A further assay concerns ieCPC-CMs. Briefly: Beating frequency and Ca2+ transients in ieCPC-CMs, pharmacological studies. Here is the method:
Contracting cardiomyocytes derived from ieCPCs (ieCPC-CMs) were dispersed by first treating cells with Collagenase B for 5-10 min and then with Accutase for 5 min. Dissociated cells were replated onto matrigel-coated coverslips (Warner Instruments). After visible beating was reconfirmed, the coverslips were loaded with the Ca^2+-sensitive fluorescent indicator Fluo-4 (see below), and then placed in a superfusion bath (Warner Instruments) on a Nikon TiS inverted microscope equipped with a microfluorometer (lonOptix). Superfusion solutions were warmed to 30° C. with a superfusion system and heated perfusion pencil (ValveLink, AutoMate Scientific).
The ieCPC-CMs on coverslips were loaded with Fluo-4 AM in a 1:10 mixture of the indicator dissolved in dry dimethyl sulfoxide at 5 mM, plus Powerload concentrate (Life Technologies). This mixture was diluted 100-fold into extracellular Tyrode's solution and substituted for culture medium in dishes containing coverslips (final indicator concentration, 5 μM). […] Fluo-4 fluorescence transients were recorded with a standard filter set with excitation and emission centered on 480 nm and 535 nm, respectively (Chroma Technology).
Fluorescence was obtained from contracting cells plus a cell-free border using a cell-framing adaptor (IonOptix). Background fluorescence, recorded after removing the cell(s) from the field of view, was subtracted from all recordings. […] Background-corrected fluorescence transients were expressed relative to the diastolic fluorescence between spontaneous APs and were considered to reflect underlying changes in intracellular Ca^2+ concentration. Unless stated, reagents were from Sigma Chem. Co. Pharmacological studies were conducted on the spontaneous fluorescence transients of non-patch-clamped myocytes, and, to maximize coverslip usage, pharmacological agents were applied locally (only to the cell or cluster of interest) with the perfusion pencil.

The next assay has as its system ieCPCs. Description: Cardiac (CM) differentiation of ieCPCs, cTnT expression. As to conditions: 20 ng/ml BMP4 or 5 μM IWP2 versus basal differentiation medium. Here is the method:
For cardiac differentiation, ieCPCs were passaged onto 96-well matrigel-coated plates at a density of […] cells/cm^2 and cultured in serum-free differentiation (SFD) medium for 10 days. IWP2 (5 μM) was added to SFD medium during the first six days to increase the yield of cardiomyocytes (CMs) in the functional characterization assays.
Differentiation efficiency of each cell type was calculated with qPCR, flow cytometry, and/or an In Cell Analyzer 2000 (General Electric Healthcare).
After washing cells three times with PBS, the cells were incubated with isotype-matched Alexa Fluorescence-conjugated secondary antibodies (Invitrogen) for 1 hour at room temperature. […] The expression of cTnT (measured by multiplying staining intensity and area) and Isl1 or α-SMA (percentage in total cells) were monitored and analyzed by an IN Cell Analyzer 2000.
To detect intracellular antigens, dissociated cells were fixed and permeabilized with a BD Cytofix/Cytoperm™ Fixation/Permeabilization Kit (BD Biosciences), and then incubated with antibodies for cTnT (MS-295-P1 Thermo Scientific; 1:200) and α-SMA (A-2547, Sigma-Aldrich; 1:200) at 4° C. overnight. After three washes, cells were incubated with isotype-matched Alexa Fluorescence-conjugated secondary antibodies (Invitrogen) for 1 hour at room temperature and detected by an LSR II Flow Cytometer (BD Biosciences).

As to `CCN(CC)C(=O)c1ccc(Nc2nc(OCC3CCCCC3)c3[nH]cnc3n2)cc1` [NU6140], in the assay with Flk-1^+/PdgfR-α^+ cells, the “ratio of Flk-1+/PdgfR-α+ cells” value was “dramatically decreased”. `C[N+](C)(C)CCOC(N)=O` [carbachol]: the “contraction of ieCPC-SMCs” value in the assay on ieCPC-SMCs is “induced contraction”. The “effect on the isoproterenol-induced increase of frequency” value in the assay with ieCPC-CMs (10 μM carbachol) is reported as “blocked”. Consider `Cn1c(=O)c2c(ncn2C)n(C)c1=O` [caffeine], for which, in the assay on ieCPC-CMs (10 mM caffeine), the “Ca2+ transients (release from sarcoplasmic reticulum)” value is listed as “elicited large Ca^2+ transients”. As for `Cc1ccc2nc(NC(=O)CSc3nc4c(c(=O)n3-c3ccccc3)SCC4)sc2c1` [IWP2], the “cardiac differentiation of ieCPCs (cTnT)” value in the assay with ieCPCs is “dramatically enhanced”. For `CC(C)NCC(O)c1ccc(O)c(O)c1` (stereo not shown) [isoproterenol], the “frequency of cell contraction and spontaneous Ca2+ transients” value in the assay with ieCPC-CMs (1 μM isoproterenol) is “significantly increased”.

B1: BMP4: member of the group of bone morphogenic proteins and a ventral mesoderm inducer (protein, UniProt P12644 293-408, looked up)
Bone morphogenetic protein 4: SPKHHSQRARKKNKNCRRHSLYVDFSDVGWNDWIVAPPGYQAFYCHGDCPFPLADHLNSTNHAIVQTLVNSVNSSIPKACCVPTELSAISMLYLDEYDKVVLKNYQEMVVEGCGCR
For B1, the “cardiac differentiation of ieCPCs (cTnT)” value in the assay with ieCPCs was “significantly impaired”.
